#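 1) Cells in 96-well plates. 2) Compound, 48 h, 5 concentrations. 3) Linear interpolation between surrounding doses. 4) Unreached endpoint = highest concentration. Here, GI50 denotes the concentration required for 50% inhibition of growth. TGI marks complete inhibition of growth.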
# System: RPMI-8226 leukemia
# Assay: NCI anticancer screen, dose series, 48 h
Structure (SMILES),GI50,TGI
Cc1nc2c(Br)cc(Br)cc2c(=O)n1-c1nnc(-c2cccc(Cl)c2Cl)c(N)n1,9.39 µM,87 µM
N#CC(I)CS(=O)(=O)c1ccccc1 (configuration not stated),17.5 µM,41.4 µM
O=Cc1cc2c(cc1-c1cc3c(cc1C=O)OCO3)OCO2,–,> 100 µM
C/C(=N\NC(N)=O)c1sc(-c2nc(C)c(/C(C)=N/NC(N)=O)s2)nc1C,–,> 100 µM
CN(C)CCNC(=O)Cc1ccccc1Nc1c(Cl)cccc1Cl,–,38.2 µM
O/N=C1\CCCCC1C(NO)c1ccccc1 (configuration not stated),–,> 100 µM
C[N+](C)(C)CC(=O)N/N=C(/Cc1cc(=O)oc2cc(O)ccc12)C(=O)Nc1ccc(Cl)cc1,–,> 100 µM
O=S(=O)(OI(OI(OS(=O)(=O)C(F)(F)F)c1ccccc1)c1ccccc1)C(F)(F)F,–,> 100 µM
COc1cc(OC)c(OC)cc1/C=N/NC(=O)N/N=C/c1cc(OC)c(OC)cc1OC,–,> 100 µM
FC(F)(F)c1ccc2nc(NCc3ccccc3)c(-c3ccccc3)nc2c1,–,98.9 µM
CCOC(=O)Nc1c(C)nc2ccccn12,> 100 µM,> 100 µM
Cc1cc2c(cc1C)[n+](=O)cc(C(=O)C/C(=N/NC(=S)NN)C(=O)Nc1cccc(C(F)(F)F)c1)n2[O-],–,> 100 µM
COCOCCC#CCO,–,> 100 µM
COc1cc(C[P+](c2ccccc2)(c2ccccc2)c2ccccc2)cc(OC)c1OC,–,> 100 µM
CCCN(CCC)c1c([N+](=O)[O-])cc(C(=O)N(CC)CC)cc1[N+](=O)[O-],–,36.3 µM
C=C(CN(C)Cc1ccccc1)c1ccc(NC(=O)c2ccc(C(=C)CN(C)Cc3ccccc3)cc2)cc1,21.7 µM,53.6 µM
COC(=N)c1csc(C2OC(CO)C(O)C2O)n1 (configuration not stated),–,> 100 µM

Structure (SMILES),GI50,TGI
CN1Nc2ccccc2CC1=O,–,> 100 µM
CCOc1ccc(OCC(=O)O)c2c1CCCC2=O,–,> 100 µM
Nc1c(S(=O)(=O)c2ccc(Cl)cc2)c2nc3ccccc3nc2n2ccnc12,–,> 100 µM
CCCCCCCC(=O)OCC1OC(n2cc(F)c(=O)[nH]c2=O)C(N)C(OC(=O)CCCCCCC)C1O (configuration not stated),–,53.5 µM
CCOc1ccc(NC(=O)CC2SC(=Nc3ccc(C)cc3C)NC2=O)cc1 (configuration not stated),–,> 100 µM
CCSc1nc(N=Cc2ccccc2O)c2cn[nH]c2n1,23.2 µM,> 100 µM
Oc1oc(C(=C2N=c3ccccc3=N2)c2ccc(Cl)cc2)c(O)c1-c1ccc(Cl)cc1,–,8.12 µM
O=C1C/C(Br)=C\c2ccccc2-c2ccccc21,–,5.28 µM
CCCCCCCCCCCC[N+]12CC[N+](CCN)(CC1)CC2,–,> 100 µM
O=[N+]([O-])c1cccnc1N=Nc1c(O)[nH]c2ccccc12,–,79.2 µM
O=c1[nH]c(=O)n(C2CC(O)C(CO)O2)cc1OS(=O)(=O)C(F)(F)F (configuration not stated),–,> 100 µM
O=C1C=C(c2c(O)ccc3ccccc23)c2cc(O)ccc2C1=O,–,> 100 µM
O=C(c1ccc([N+](=O)[O-])cc1[N+](=O)[O-])N(/N=C/C=C/c1ccccc1)c1nnc(-c2ccccc2)c(-c2ccccc2)n1,–,> 100 µM
CC(=O)N/C(=C\c1ccccc1/C=C(\NC(C)=O)c1nc2cc(C)c(C)cc2[nH]1)c1nc2cc(C)c(C)cc2[nH]1,–,64.7 µM
CC12c3ccccc3C(OC=O)(c3ccccc31)C1(C)c3ccccc3C2(OC=O)c2ccccc21,–,> 100 µM
CN(Cc1cnc2nc(N)nc(N)c2n1)c1ccc(C(=O)N[C@@H](CCS(=O)(=O)O)C(=O)O)cc1,–,> 100 µM
CCOC(=O)Cc1csc(Nc2ccccc2[N+](=O)[O-])n1,–,> 100 µM

# System: CAKI-1 renal
# Assay: NCI anticancer screen, dose series, 48 h
Structure (SMILES),GI50,TGI
Cc1nc2c(Br)cc(Br)cc2c(=O)n1-c1nnc(-c2cccc(Cl)c2Cl)c(N)n1,28.5 µM,80.6 µM
N#CC(I)CS(=O)(=O)c1ccccc1 (configuration not stated),1.61 µM,3.32 µM
Cc1nc2sccn2c1-c1nc2sccn2c1/C=C1/C(=O)Nc2ccccc21,5.29 µM,69.4 µM
O=Cc1cc2c(cc1-c1cc3c(cc1C=O)OCO3)OCO2,–,> 100 µM
C/C(=N\NC(N)=O)c1sc(-c2nc(C)c(/C(C)=N/NC(N)=O)s2)nc1C,–,> 100 µM
C[N+](C)(C)CC(=O)N/N=C(/Cc1cc(=O)oc2cc(O)ccc12)C(=O)Nc1ccc(Cl)cc1,–,> 100 µM
O=S(=O)(OI(OI(OS(=O)(=O)C(F)(F)F)c1ccccc1)c1ccccc1)C(F)(F)F,–,> 100 µM
CCOC(=O)Nc1c(C)nc2ccccn12,> 100 µM,> 100 µM
Cc1cc2c(cc1C)[n+](=O)cc(C(=O)C/C(=N/NC(=S)NN)C(=O)Nc1cccc(C(F)(F)F)c1)n2[O-],–,> 100 µM
COc1cc(C[P+](c2ccccc2)(c2ccccc2)c2ccccc2)cc(OC)c1OC,–,> 100 µM
C=C(C)[C@@H]1CC[C@]2(CN)CC[C@]3(C)[C@H](CC[C@@H]4[C@@]5(C)CCCNC(C)(C)[C@@H]5CC[C@]43C)[C@@H]12,1.66 µM,3.02 µM
CCCN(CCC)c1c([N+](=O)[O-])cc(C(=O)N(CC)CC)cc1[N+](=O)[O-],–,> 100 µM
C=C(CN(C)Cc1ccccc1)c1ccc(NC(=O)c2ccc(C(=C)CN(C)Cc3ccccc3)cc2)cc1,53 µM,> 100 µM
COC(=N)c1csc(C2OC(CO)C(O)C2O)n1 (configuration not stated),–,> 100 µM
CN1Nc2ccccc2CC1=O,–,> 100 µM
CCCCCCCC(=O)OCC1OC(n2cc(F)c(=O)[nH]c2=O)C(N)C(OC(=O)CCCCCCC)C1O (configuration not stated),–,41.5 µM

Structure (SMILES),GI50,TGI
CCOc1ccc(NC(=O)CC2SC(=Nc3ccc(C)cc3C)NC2=O)cc1 (configuration not stated),–,> 100 µM
CCSc1nc(N=Cc2ccccc2O)c2cn[nH]c2n1,19.3 µM,82.4 µM
Oc1oc(C(=C2N=c3ccccc3=N2)c2ccc(Cl)cc2)c(O)c1-c1ccc(Cl)cc1,–,7.14 µM
Cc1nc2c(N)ncnc2o1,–,> 100 µM
O=C1C/C(Br)=C\c2ccccc2-c2ccccc21,–,5.86 µM
CCCCCCCCCCCC[N+]12CC[N+](CCN)(CC1)CC2,–,> 100 µM
O=c1[nH]c(=O)n(C2CC(O)C(CO)O2)cc1OS(=O)(=O)C(F)(F)F (configuration not stated),–,> 100 µM
O=C1C=C(Nc2ccc(Cl)cc2C(=O)c2ccccc2)c2ccccc2C1=O,–,> 100 µM
CC[C@@H]1NC(C(=O)OC)Cc2c1[nH]c1ccccc21 (some centres not stated),–,> 100 µM
O=C1C=C(c2c(O)ccc3ccccc23)c2cc(O)ccc2C1=O,–,40.1 µM
O=C(c1ccc([N+](=O)[O-])cc1[N+](=O)[O-])N(/N=C/C=C/c1ccccc1)c1nnc(-c2ccccc2)c(-c2ccccc2)n1,–,79.6 µM
Cc1cc(C)nc(NS(=O)(=O)c2ccc(Nc3c4ccccc4nc4c(C(=O)N5CCN(CCO)CC5)cccc34)cc2)n1,–,> 100 µM
CC(=O)N/C(=C\c1ccccc1/C=C(\NC(C)=O)c1nc2cc(C)c(C)cc2[nH]1)c1nc2cc(C)c(C)cc2[nH]1,–,78.1 µM
CC12c3ccccc3C(OC=O)(c3ccccc31)C1(C)c3ccccc3C2(OC=O)c2ccccc21,–,> 100 µM
CN(Cc1cnc2nc(N)nc(N)c2n1)c1ccc(C(=O)N[C@@H](CCS(=O)(=O)O)C(=O)O)cc1,–,> 100 µM
CCOC(=O)Cc1csc(Nc2ccccc2[N+](=O)[O-])n1,–,> 100 µM

# System: UO-31 renal
# Assay: NCI anticancer screen, dose series, 48 h
Structure (SMILES),GI50,TGI
Cc1nc2c(Br)cc(Br)cc2c(=O)n1-c1nnc(-c2cccc(Cl)c2Cl)c(N)n1,31 µM,> 100 µM
N#CC(I)CS(=O)(=O)c1ccccc1 (configuration not stated),12 µM,25.8 µM
Cc1nc2sccn2c1-c1nc2sccn2c1/C=C1/C(=O)Nc2ccccc21,4.93 µM,89.7 µM
O=Cc1cc2c(cc1-c1cc3c(cc1C=O)OCO3)OCO2,–,> 100 µM
C/C(=N\NC(N)=O)c1sc(-c2nc(C)c(/C(C)=N/NC(N)=O)s2)nc1C,–,> 100 µM
CN(C)CCNC(=O)Cc1ccccc1Nc1c(Cl)cccc1Cl,–,25.6 µM
O/N=C1\CCCCC1C(NO)c1ccccc1 (configuration not stated),–,> 100 µM
C[N+](C)(C)CC(=O)N/N=C(/Cc1cc(=O)oc2cc(O)ccc12)C(=O)Nc1ccc(Cl)cc1,–,> 100 µM
O=S(=O)(OI(OI(OS(=O)(=O)C(F)(F)F)c1ccccc1)c1ccccc1)C(F)(F)F,–,> 100 µM
COc1cc(OC)c(OC)cc1/C=N/NC(=O)N/N=C/c1cc(OC)c(OC)cc1OC,–,> 100 µM
FC(F)(F)c1ccc2nc(NCc3ccccc3)c(-c3ccccc3)nc2c1,–,92.9 µM
CCOC(=O)Nc1c(C)nc2ccccn12,> 100 µM,> 100 µM
Cc1cc2c(cc1C)[n+](=O)cc(C(=O)C/C(=N/NC(=S)NN)C(=O)Nc1cccc(C(F)(F)F)c1)n2[O-],–,> 100 µM
COCOCCC#CCO,–,> 100 µM
COc1cc(C[P+](c2ccccc2)(c2ccccc2)c2ccccc2)cc(OC)c1OC,–,> 100 µM
C=C(C)[C@@H]1CC[C@]2(CN)CC[C@]3(C)[C@H](CC[C@@H]4[C@@]5(C)CCCNC(C)(C)[C@@H]5CC[C@]43C)[C@@H]12,1.56 µM,3.05 µM
CCCN(CCC)c1c([N+](=O)[O-])cc(C(=O)N(CC)CC)cc1[N+](=O)[O-],–,63.1 µM
C=C(CN(C)Cc1ccccc1)c1ccc(NC(=O)c2ccc(C(=C)CN(C)Cc3ccccc3)cc2)cc1,76.2 µM,> 100 µM
